Test results from patent publication US20150065526A1, “OVERCOMING ACQUIRED RESISTANCE TO CHEMOTHERAPY TREATMENTS THROUGH SUPPRESSION OF STAT3” (EMORY UNIVERSITY, priority 2013, published 2015).

What was measured:
[1] = tested on: HCC827/ER lung cancer xenografts; conditions: niclosamide 20 mg/kg/d
Protocol: (§1) Each group includes 8 mice. Tumor volume was measured once every 2 days. After 32 days, the mice were sacrificed and the tumors were removed and analyzed. Representative tumor pictures were taken. B, active caspase-3 was analyzed in tumor tissues at the end of experiments by IHC staining and quantified as described in Materials and Methods. C, expression levels of pEGFR, pSTAT3, Bcl2, and Bcl-XL from tumor tissues in various treatment groups were analyzed by Western blot analysis.
(§2) The control group was treated with 0.5% DMSO vehicle.

[2] = tested on: Tu212 head and neck cancer xenografts; test: Tu212 head and neck cancer xenografts in mice; type: in vivo; conditions: for Xenograft tumor growth, Tu212: erlotinib 40 mg/kg/d, niclosamide 20 mg/kg/d, two weeks
Protocol: Each group included 8 mice. Tumor volume was measured once every 2 days. After 14 days, the mice were sacrificed and the tumors were removed and analyzed. Representative tumor pictures were taken. B, Active caspase 3 and Ki 67 were analyzed in tumor tissues at the end of experiments by IHC staining and quantified. C, Expression levels of pEGFR, pSTAT3, Bcl2 and Bcl-XL in tumor tissues from various treatment groups were analyzed by Western blot.
First, head and neck cancer xenografts were generated using Tu212 cells.

[3] = tested on: PTPMeg2, pSTAT3, Bcl2, Bcl-XL, JAK2, c-Src in HCC827 cells; test: Western blot of HCC827 cells treated with erlotinib; type: cell-based, human
[4] = tested on: HCC827 lung cancer xenografts; conditions: niclosamide 20 mg/kg/d
Protocol: as §1, §2

[5] = tested on: STAT3 phosphorylation, Bcl2/Bcl-XL in Tu212 and Tu686 cells; test: Western blot of Tu212 and Tu686 head and neck cancer cells; type: cell-based; conditions: erlotinib plus increasing concentrations of niclosamide, 48 h
[6] = target: STAT3 (Homo sapiens, UniProt P40763); conditions: cited from earlier work
Chain of STAT3 (P40763 whole entry): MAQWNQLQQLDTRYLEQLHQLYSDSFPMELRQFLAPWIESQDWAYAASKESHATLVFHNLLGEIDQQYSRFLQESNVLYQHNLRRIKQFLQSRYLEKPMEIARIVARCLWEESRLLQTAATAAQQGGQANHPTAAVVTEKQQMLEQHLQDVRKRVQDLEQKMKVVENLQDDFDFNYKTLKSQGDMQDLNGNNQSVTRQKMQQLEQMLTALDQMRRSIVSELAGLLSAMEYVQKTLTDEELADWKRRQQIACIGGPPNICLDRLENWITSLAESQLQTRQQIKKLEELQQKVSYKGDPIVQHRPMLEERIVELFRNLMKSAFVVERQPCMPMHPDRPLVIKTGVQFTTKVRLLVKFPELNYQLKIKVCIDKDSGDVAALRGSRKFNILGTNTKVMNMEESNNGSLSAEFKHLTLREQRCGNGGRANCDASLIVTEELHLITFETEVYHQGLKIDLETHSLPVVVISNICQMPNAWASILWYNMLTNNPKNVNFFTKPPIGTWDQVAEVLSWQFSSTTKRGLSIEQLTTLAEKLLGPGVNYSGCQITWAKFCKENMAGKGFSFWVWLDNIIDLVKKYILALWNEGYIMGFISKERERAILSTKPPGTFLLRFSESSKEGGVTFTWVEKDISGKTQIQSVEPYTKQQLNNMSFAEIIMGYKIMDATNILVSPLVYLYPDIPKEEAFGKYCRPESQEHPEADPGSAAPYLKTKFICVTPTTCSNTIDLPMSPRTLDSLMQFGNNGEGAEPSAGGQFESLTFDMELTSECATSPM

C#Cc1cccc(Nc2ncnc3cc(OCCOC)c(OCCOC)cc23)c1 [erlotinib, N-(3-ethynylphenyl)-6,7-bis(2-methoxyethoxy)quinazolin-4-amine]
Tumor volume, HCC827/ER xenografts ([1]; erlotinib 40 mg/kg/d, 32 days): tumor volumes comparable with those in the vehicle-treated control group
Xenograft tumor growth, Tu212 [2]: modest efficacy
JAK2 and c-Src phosphorylation [3]: inhibited JAK2 and c-Src phosphorylation
PTPMeg2 expression [3]: downregulates PTPMeg2
STAT3/Bcl2/Bcl-XL pathway status [3]: activation of the STAT3/Bcl2/Bcl-XL pathway

O=C(Nc1ccc([N+](=O)[O-])cc1Cl)c1cc(Cl)ccc1O [niclosamide]
STAT3 phosphorylation, Bcl2 and Bcl-XL in tumor lysates (Western blot), HCC827 [4]: blocks STAT3 phosphorylation in association with reduced Bcl2 and Bcl-XL
STAT3 phosphorylation, Bcl2 and Bcl-XL in tumor lysates (Western blot), HCC827/ER [1]: blocks STAT3 phosphorylation in association with reduced Bcl2 and Bcl-XL
Erlotinib-induced STAT3 phosphorylation and Bcl2/Bcl-XL (Western blot) [5]: inhibited erlotinib-induced STAT3 phosphorylation and downregulated Bcl2/Bcl-XL in a dose-dependent manner
Xenograft tumor growth, Tu212 [2]: modest efficacy
Erlotinib-stimulated STAT3 phosphorylation, Bcl2 and Bcl-XL in tumor tissue lysates, Tu212 ([2]; three mice in each treatment group): blocks erlotinib-stimulated STAT3 phosphorylation leading to decreased Bcl2 and Bcl-XL levels
Activation of upstream proteins JAK2 and Src [6]: no obvious inhibitory effect
STAT3 Tyr705 phosphorylation and transcriptional activity [6]: can inhibit Tyr705 site phosphorylation as well as transcriptional activity of STAT3
